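A five-concentration, 48-hour dose response in 96-well plates underlies each endpoint, interpolated linearly between surrounding concentrations. The concentration for full growth arrest is given as TGI.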

Common to all, as to experiment: DTP human tumour cell line panel, 48 h
For experiment [1], the system named is M14 melanoma.
Experiment [2] concerns UACC-62 melanoma.
Experiment [3] has as its system T-47D breast.
Experiment [4] deals with MALME-3M melanoma.
The test system of experiment [5] is RPMI-8226 leukemia.
In experiment [6] the test system is U251 CNS.
The test system of experiment [7] is HS 578T breast.
Experiment [8] deals with OVCAR-5 ovarian.
The subject of experiment [9] is SK-MEL-2 melanoma.
The subject of experiment [10] is SF-268 CNS.
Experiment [11] has as its system ACHN renal.
Experiment [12] has as its system 786-0 renal.

Take `Nc1cn(Cc2ccccc2)c2nc(/C=C3/C=CC=CC3=O)c(O)n12`: the TGI in experiment [1], in [2], in experiment [3], in experiment [4], in [5] and in experiment [6] was over 100 µM each time. In addition, the concentration for total growth inhibition (TGI) in experiment [7], in experiment [8], in experiment [9], in [10], in [11] and in experiment [12] was over 100 µM in each case.
As to `CN(C)CCCCN1c2ccccc2Sc2cc(N=[N+]=[N-])ccc21`, the TGI came out at 3.08 µM in experiment [1]; 3.31 µM in experiment [2]; 4.86 µM in [3]; 3.34 µM in [4]; 6.06 µM in experiment [5]; 4.27 µM in experiment [6]. The concentration for total growth inhibition (TGI) stood at 9.83 µM in [7]; 3.76 µM in experiment [8]; 3.4 µM in experiment [9]; 4.62 µM in experiment [10]; 4.5 µM in experiment [11]; 3.08 µM in experiment [12].
Regarding `CNn1c(C)n[nH]c1=O`, the concentration for total growth inhibition (TGI) in [1], in [2], in experiment [3], in [4], in [5] and in experiment [6] was over 100 µM each time. Besides, the TGI in experiment [7], in experiment [8], in [9], in experiment [10], in experiment [11] and in [12] was over 100 µM in each case.
As to `O=C1CCC2CCC1C2` (configuration not stated), the TGI in experiment [1], in experiment [2], in [3], in [4], in experiment [5] and in [6] was over 100 µM each time. The TGI in [7], in [8], in experiment [9], in experiment [10], in experiment [11] and in [12] was over 100 µM in each case.
`NC1=NN(c2ccccc2)C2(O)c3ccncc3C3=NN(c4ccccc4)C(=O)C132` (configuration not stated): the concentration for total growth inhibition (TGI) in experiment [1], in experiment [2], in experiment [3], in experiment [4], in experiment [5] and in experiment [6] was over 100 µM each time. The TGI in experiment [7], in experiment [8], in experiment [9], in experiment [10], in experiment [11] and in experiment [12] was over 100 µM in each case.
As for `Fc1ccccc1-c1nn2c(C34CC5CC(CC(C5)C3)C4)nnc2s1`, the TGI in [1], in experiment [2], in experiment [3], in experiment [4], in [5] and in experiment [6] was over 100 µM throughout. Also, the TGI in experiment [7], in experiment [8], in experiment [9], in [10], in experiment [11] and in [12] was over 100 µM throughout.
Consider `Cc1occc1C(=S)Nc1ccc(Cl)c(/C=N/OC(C)C)c1`, for which the TGI in experiment [1] was 57.9 µM; in experiment [2], 29.2 µM; in [3] it was over 41.6 µM; in experiment [4], over 57.4 µM; in [5], over 67.6 µM; in experiment [6], over 53.7 µM. Further, the TGI in experiment [7] was 67.9 µM; in experiment [8] it was 49.4 µM; in experiment [9] it was 43.8 µM; in [10], over 62.2 µM; in experiment [11], 51 µM; in [12], 43.8 µM.
As for `COc1ccc(C(c2c[nH]c3ccc(Br)cc23)c2c[nH]c3ccc(Br)cc23)cc1`, the total growth inhibition concentration (TGI) stood at 0.7 µM in experiment [1]; 0.689 µM in [2]; 2.67 µM in experiment [3]; 2.23 µM in [4]; 0.543 µM in experiment [5]; 0.557 µM in experiment [6]. The TGI in experiment [7] worked out at 3.81 µM; in experiment [8] it was 1.2 µM; in experiment [9], 1.22 µM; in experiment [10], 0.631 µM; in experiment [11] it was 0.845 µM; in [12] it was 1.07 µM.
With `O=c1[nH]c(=S)[nH]n1C(=S)n1[nH]c(=S)[nH]c1=O`, the concentration for total growth inhibition (TGI) in experiment [1], in experiment [2], in experiment [3], in experiment [4], in [5] and in [6] was over 100 µM each time. The TGI in experiment [7], in experiment [8], in experiment [9], in experiment [10], in [11] and in experiment [12] was over 100 µM throughout.
`C=C(Br)CN(C(C)=O)C1CCCCC1`: the TGI in [1], in experiment [2], in experiment [3], in experiment [4], in [5] and in [6] was over 100 µM throughout. In addition, the TGI in [7], in [8], in [9], in experiment [10], in experiment [11] and in [12] was over 100 µM in each case.
For `COc1cccc2c(Nc3ccc(S(=O)(=O)NC(C)=O)cc3)c3ccc([N+](=O)[O-])cc3nc12`, the concentration for total growth inhibition (TGI) was over 100 µM in [1]; over 58.3 µM in [2]; over 100 µM in [3]; over 87 µM in [4]; over 100 µM in experiment [5]; over 53.5 µM in experiment [6]. For the same compound, the concentration for total growth inhibition (TGI) was over 100 µM in experiment [7]; over 100 µM in experiment [8]; over 100 µM in [9]; over 93.7 µM in [10]; over 100 µM in experiment [11]; over 100 µM in experiment [12].

By TGI is commonly meant the concentration at which net growth stops. Read a low TGI as more potent growth arrest.

The values above are taken from PubChem BioAssay (NCI).
